# Biological target: T1, Dihydrofolate reductase (Candida glabrata (strain ATCC 2001 / BCRC 20586 / JCM 3761 / NBRC 0622 / NRRL Y-65 / CBS 138), UniProt Q6FPH0)
# T1 sequence (Q6FPH0 whole entry): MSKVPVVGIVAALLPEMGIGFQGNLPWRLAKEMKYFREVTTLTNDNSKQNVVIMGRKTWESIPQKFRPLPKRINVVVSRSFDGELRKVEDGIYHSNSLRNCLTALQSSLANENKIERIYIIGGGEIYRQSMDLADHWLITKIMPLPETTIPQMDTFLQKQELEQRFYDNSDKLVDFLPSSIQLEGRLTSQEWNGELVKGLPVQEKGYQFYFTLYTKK
# Experiment: Enzyme Inhibition Assay
# Protocol: Enzyme activity assay were performed by monitoring the rate of enzyme-dependent NADPH consumption at an absorbance of 340 nm over 5 min.
row,Structure (SMILES),IC50
1,COc1cc(-c2ccc(C)cc2)cc([C@@H](C)C#Cc2c(C)nc(N)nc2N)c1 (racemic),0.61 nM
2,COc1ccc(-c2cc(OC)cc(C(C)C#Cc3c(C)nc(N)nc3N)c2)cc1 (racemic),6.4 nM
3,"COc1cc(-c2cc(C)cc(C)c2)cc([C@@H](C)C#Cc2c(C)nc(N)nc2N)c1 (racemic) [Biphenyl antifolate, 2]",0.55 nM
4,"COc1cc(-c2c(C)cccc2C)cc(C(C)C#Cc2c(C)nc(N)nc2N)c1 (racemic) [Biphenyl antifolate, 6]",5.5 nM
5,"COc1cc(-c2ccc(C(C)(C)C)cc2)cc(C(C)C#Cc2c(C)nc(N)nc2N)c1 (racemic) [Biphenyl antifolate, 24]",10 nM
6,"COc1cc(-c2ccccc2C)cc(C(C)C#Cc2c(C)nc(N)nc2N)c1 (stereo unspecified) [5-{3-[3-methoxy-5-(2-methylphenyl)phenyl]but-1-yn-1-yl}-6-methylpyrimidine-2,4-diamine]",7.3 nM
